Measurements published in US11161852B1 (Halia Therapeutics, Inc., priority 2020, dated 2021).
pIC50: −log10 of the molar value.

Target: full-length recombinant human NEK7 (Homo sapiens (Human), UniProt Q8TDX7)
Assay: NEK7 Enzymatic Assay ([33P]-ATP, casein substrate)
Assay type: biochemical
Description: Casein substrate (from bovine milk, hydrolyzed and partially dephosphorylated mixture of α, β and a caseins, obtained from Sigma Aldrich, catalogue #C4765, diluted in distilled water to a final concentration of 1 mg/mL) and full-length recombinant human NEK7 (expressed by baculovirus in Sf9 insect cells using a N-terminal GST tag, obtained from SignalChem, catalogue #N09-10G, 0.1 μg/μL) were mixed in assay buffer (20 mM Hepes pH 7.5, 10 mM MgCl2, 1 mM EGTA, 0.02% Brij35, 0.02 mg/ml BSA, 0.1 mM Na3VO4, 2 mM DTT, 1% DMSO). Compounds of interest (serial 3-fold dilution in DMSO from 10 μM to 0.5 nM) or vehicle (1% DMSO) were dispensed into the kinase reaction mixture by Acoustic technology (Echo550; nanoliter range). After incubation at room temperature for 20 minutes, the kinase reaction was initiated by addition of [^33P]-ATP (specific activity […]) and the mixture was incubated at room temperature for 2 hours. The reaction was then stopped by spotting the reaction mixture on strips of phosphocellulose P81 paper. Following washing, the radioactivity of the P81 paper was measured and kinase activity data were expressed as the percent remaining kinase activity in test samples compared to vehicle reactions. IC50 values and curve fits were obtained using Prism (GraphPad Software).

Chain of full-length recombinant human NEK7 (Q8TDX7 whole entry): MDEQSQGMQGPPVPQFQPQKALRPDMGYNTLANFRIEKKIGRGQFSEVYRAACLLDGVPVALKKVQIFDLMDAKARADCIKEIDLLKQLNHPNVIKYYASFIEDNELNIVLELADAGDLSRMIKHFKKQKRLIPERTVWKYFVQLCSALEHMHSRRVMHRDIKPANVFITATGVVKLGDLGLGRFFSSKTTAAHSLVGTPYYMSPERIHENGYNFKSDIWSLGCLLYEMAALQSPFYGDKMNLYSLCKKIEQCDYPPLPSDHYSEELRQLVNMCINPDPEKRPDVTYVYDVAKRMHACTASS

| pIC50 | Compound |
| --- | --- |
| < 5.82 | COc1cc(-c2cn(C3CC3)c3ncnc(N)c23)ccc1NC(=O)Nc1cc(C2(C(F)(F)F)CC2)no1 [Example 55, 1-(4-(4-amino-7-cyclopropyl-7H-pyrrolo[2,3-d]pyrimidin-5-yl)-2-methoxyphenyl)-3-(3-(1-(trifluoromethyl)cyclopropyl)isoxazol-5-yl)urea] |
| < 5.82 | N#Cc1cc(-c2cn(C3CC3)c3ncnc(N)c23)ccc1NC(=O)Nc1cc(C2(C(F)(F)F)CC2)no1 [Example 50, 1-(4-(4-amino-7-cyclopropyl-7H-pyrrolo[2,3-d]pyrimidin-5-yl)-2-cyanophenyl)-3-(3-(1-(trifluoromethyl)cyclopropyl)isoxazol-5-yl)urea] |
| 6.52 to 6.82 | CCC(C)c1cc(NC(=O)Nc2ccc(-c3cn(C4CC4)c4ncnc(N)c34)cc2F)on1 (centres unmarked) [Example 30, 1-(4-(4-amino-7-cyclopropyl-7H-pyrrolo[2,3-d]pyrimidin-5-yl)-2-fluorophenyl)-3-(3-(sec-butyl)isoxazol-5-yl)urea] |
| 6.30 to 6.52 | Nc1ncnc2c1c(-c1ccc(NC(=O)Nc3cc(C4CC4)on3)c(F)c1)cn2C1CC1 [Example 6] |
| > 6.82 | CC1(c2cc(NC(=O)Nc3ccc(-c4cn(C5CC5)c5ncnc(N)c45)cc3F)on2)COC1 [Example 27, 1-(4-(4-amino-7-cyclopropyl-7H-pyrrolo[2,3-d]pyrimidin-5-yl)-2-fluorophenyl)-3-(3-(3-methyloxetan-3-yl)isoxazol-5-yl)urea] |
| < 5.82 | Nc1ncnc2c1c(-c1c(F)cc(NC(=O)Nc3cc(C4(C(F)(F)F)CC4)no3)cc1F)cn2C1CC1 [Example 43, 1-(4-(4-amino-7-cyclopropyl-7H-pyrrolo[2,3-d]pyrimidin-5-yl)-3,5-difluorophenyl)-3-(3-(1-(trifluoromethyl)cyclopropyl)isoxazol-5-yl)urea] |
| > 6.82 | CCc1cc(NC(=O)Nc2ccc(-c3cn(C4CC4)c4ncnc(N)c34)cc2F)on1 [Example 33, 1-(4-(4-amino-7-cyclopropyl-7H-pyrrolo[2,3-d]pyrimidin-5-yl)-2-fluorophenyl)-3-(3-ethylisoxazol-5-yl)urea] |
| 6.52 to 6.82 | CC(C)(c1cc(NC(=O)Nc2ccc(-c3cn(C4CC4)c4ncnc(N)c34)cc2F)on1)C(F)(F)F [Example 12, 1-(4-(4-amino-7-cyclopropyl-7H-pyrrolo[2,3-d]pyrimidin-5-yl)-2-fluorophenyl)-3-(3-(1,1,1-trifluoro-2-methylpropan-2-yl)isoxazol-5-yl)urea] |
| < 5.82 | Cc1cc(-c2cn(C3CC3)c3ncnc(N)c23)ncc1NC(=O)Nc1cc(C2(C(F)(F)F)CC2)no1 [Example 40, 1-(6-(4-amino-7-cyclopropyl-7H-pyrrolo[2,3-d]pyrimidin-5-yl)-4-methylpyridin-3-yl)-3-(3-(1-(trifluoromethyl)cyclopropyl)isoxazol-5-yl)urea] |
| 6.30 to 6.52 | Nc1ncnc2c1c(-c1ccc(NC(=O)Nc3cc(C4(C(F)(F)F)CC4)no3)c(F)c1)cn2C1CCC1 [Example 53, 1-(4-(4-amino-7-cyclobutyl-7H-pyrrolo[2,3-d]pyrimidin-5-yl)-2-fluorophenyl)-3-(3-(1-(trifluoromethyl)cyclopropyl)isoxazol-5-yl)urea] |
| < 5.82 | Nc1ncnc2c1c(-c1ccc(NC(=O)Nc3cc(C4(C(F)(F)F)CC4)no3)c(CO)c1)cn2C1CC1 [Example 49, 1-(4-(4-amino-7-cyclopropyl-7H-pyrrolo[2,3-d]pyrimidin-5-yl)-2-(hydroxymethyl)phenyl)-3-(3-(1-(trifluoromethyl)cyclopropyl)isoxazol-5-yl)urea] |
| < 5.82 | Nc1ncnc2c1c(-c1ccc(NC(=O)Nc3cc(C4(C(F)(F)F)CC4)no3)c(Cl)c1)cn2C1CC1 [Example 54, 1-(4-(4-amino-7-cyclopropyl-7H-pyrrolo[2,3-d]pyrimidin-5-yl)-2-chlorophenyl)-3-(3-(1-(trifluoromethyl)cyclopropyl)isoxazol-5-yl)urea] |
| 5.82 to 6.30 | Nc1ncnc2c1c(-c1cc(F)c(NC(=O)Nc3cc(C4(C(F)(F)F)CC4)no3)cc1F)cn2C1CC1 [Example 42, 1-(4-(4-amino-7-cyclopropyl-7H-pyrrolo[2,3-d]pyrimidin-5-yl)-2,5-difluorophenyl)-3-(3-(1-(trifluoromethyl)cyclopropyl)isoxazol-5-yl)urea] |
| 6.30 to 6.52 | CC(C)(C)c1nnc(NC(=O)Nc2ccc(-c3cn(C4CC4)c4ncnc(N)c34)cc2F)o1 [Example 23, 1-(4-(4-amino-7-cyclopropyl-7H-pyrrolo[2,3-d]pyrimidin-5-yl)-2-fluorophenyl)-3-(5-(tert-butyl)-1,3,4-oxadiazol-2-yl)urea] |
| > 6.82 | CC(C)(O)Cn1cc(-c2ccc(NC(=O)Nc3cc(C4(C(F)(F)F)CC4)no3)nc2)c2c(N)ncnc21 [Example 46, 1-(5-(4-amino-7-(2-hydroxy-2-methylpropyl)-7H-pyrrolo[2,3-d]pyrimidin-5-yl)pyridin-2-yl)-3-(3-(1-(trifluoromethyl)cyclopropyl)isoxazol-5-yl)urea] |
| > 6.82 | Nc1ncnc2c1c(-c1ccc(NC(=O)Nc3cc(C4(C(F)(F)F)CC4)no3)c(F)c1)cn2CCO [Example 52, 1-(4-(4-amino-7-(2-hydroxyethyl)-7H-pyrrolo[2,3-d]pyrimidin-5-yl)-2-fluorophenyl)-3-(3-(1-(trifluoromethyl)cyclopropyl)isoxazol-5-yl)urea] |
| < 5.82 | CC(C)(C)c1cc(NC(=O)NC2CCC(c3cn(C4CC4)c4ncnc(N)c34)CC2)on1 (centres unmarked) [Example 16, 1-(4-(4-amino-7-cyclopropyl-7H-pyrrolo[2,3-d]pyrimidin-5-yl)cyclohexyl)-3-(3-(tert-butyl)isoxazol-5-yl)urea] |
| 6.30 to 6.52 | CC(C)(CO)c1cc(NC(=O)Nc2ccc(-c3cn(C4CC4)c4ncnc(N)c34)cc2F)on1 [Example 29, 1-(4-(4-amino-7-cyclopropyl-7H-pyrrolo[2,3-d]pyrimidin-5-yl)-2-fluorophenyl)-3-(3-(1-hydroxy-2-methylpropan-2-yl)isoxazol-5-yl)urea] |
| < 5.82 | CC(C)(C)c1cc(NC(=O)Nc2ccc(-c3cn(C4CC4)c4ncnc(N)c34)cc2F)sn1 [Example 20, 1-(4-(4-amino-7-cyclopropyl-7H-pyrrolo[2,3-d]pyrimidin-5-yl)-2-fluorophenyl)-3-(3-(tert-butyl)isothiazol-5-yl)urea] |
| 5.82 to 6.30 | Nc1ncnc2c1c(-c1ccc(NC(=O)Nc3cc(C4(C(F)(F)F)CC4)on3)c(F)c1)cn2C1CCC1 [Example 58, 1-(4-(4-amino-7-cyclobutyl-7H-pyrrolo[2,3-d]pyrimidin-5-yl)-2-fluorophenyl)-3-(5-(1-(trifluoromethyl)cyclopropyl)isoxazol-3-yl)urea] |
| > 6.82 | Nc1ncnc2c1c(-c1ccc(NC(=O)Nc3cc(C4(C(F)(F)F)CCC4)on3)c(F)c1)cn2C1CC1 [Example 57, 1-(4-(4-amino-7-cyclopropyl-7H-pyrrolo[2,3-d]pyrimidin-5-yl)-2-fluorophenyl)-3-(5-(1-(trifluoromethyl)cyclobutyl)isoxazol-3-yl)urea] |
| < 5.82 | CC(C)(C)c1nsc(NC(=O)Nc2ccc(-c3cn(C4CC4)c4ncnc(N)c34)cc2F)n1 [Example 21, 1-(4-(4-amino-7-cyclopropyl-7H-pyrrolo[2,3-d]pyrimidin-5-yl)-2-fluorophenyl)-3-(3-(tert-butyl)-1,2,4-thiadiazol-5-yl)urea] |
| < 5.82 | Nc1ncnc2c1c(-c1cc(F)c(NC(=O)Nc3cc(C4(C(F)(F)F)CC4)on3)c(F)c1)cn2C1CC1 [Example 60, 1-(4-(4-amino-7-cyclopropyl-7H-pyrrolo[2,3-d]pyrimidin-5-yl)-2,6-difluorophenyl)-3-(5-(1-(trifluoromethyl)cyclopropyl)isoxazol-3-yl)urea] |
| > 6.82 | CC(C)c1cc(NC(=O)Nc2ccc(-c3cn(C4CC4)c4ncnc(N)c34)cc2F)on1 [Example 32, 1-(4-(4-amino-7-cyclopropyl-7H-pyrrolo[2,3-d]pyrimidin-5-yl)-2-fluorophenyl)-3-(3-isopropylisoxazol-5-yl)urea] |
| > 6.82 | COCCn1cc(-c2ccc(NC(=O)Nc3cc(C4(C(F)(F)F)CC4)no3)c(F)c2)c2c(N)ncnc21 [Example 51, 1-(4-(4-amino-7-(2-methoxyethyl)-7H-pyrrolo[2,3-d]pyrimidin-5-yl)-2-fluorophenyl)-3-(3-(1-(trifluoromethyl)cyclopropyl)isoxazol-5-yl)urea] |
| 5.82 to 6.30 | Cc1cc(NC(=O)Nc2ccc(-c3cn(C4CC4)c4ncnc(N)c34)cc2F)on1 [Example 7, 1-(4-(4-amino-7-cyclopropyl-7H-pyrrolo[2,3-d]pyrimidin-5-yl)-2-fluorophenyl)-3-(3-methylisoxazol-5-yl)urea] |
| 6.30 to 6.52 | CN1CCC(n2cc(-c3ccc(NC(=O)Nc4cc(C5(C(F)(F)F)CC5)no4)c(F)c3)c3c(N)ncnc32)CC1 [Example 26, 1-(4-(4-amino-7-(1-methylpiperidin-4-yl)-7H-pyrrolo[2,3-d]pyrimidin-5-yl)-2-fluorophenyl)-3-(3-(1-(trifluoromethyl)cyclopropyl)isoxazol-5-yl)urea] |
| > 6.82 | 1-(4-(4-amino-7-(2-hydroxy-2-methylpropyl)-7H-pyrrolo[2,3-d]pyrimidin-5-yl)-2-fluorophenyl)-3-(5-(1-(trifluoromethyl)cyclopropyl)isoxazol-3-yl)urea [Example 47] |
| < 5.82 | CC(C)(C)n1cnc(NC(=O)Nc2ccc(-c3cn(C4CC4)c4ncnc(N)c34)cc2F)n1 [Example 22, 1-(4-(4-amino-7-cyclopropyl-7H-pyrrolo[2,3-d]pyrimidin-5-yl)-2-fluorophenyl)-3-(1-(tert-butyl)-1H-1,2,4-triazol-3-yl)urea] |
